Where two headings read alike, the source gives them in different places.
How the values were obtained:
[1] = Fluorescence (photoluminescence) intensity in ethanol, fluorescence spectrophotometer RF-5300PC; type: physicochemical; details: for Fluorescence Intensity / center of Luminous Wave: 25 mg of compound in 100 ml of ethanol; for Relative Value of Fluorescence Intensity, Relative Value (2) (Related to Metal Complex Intermediate 3): metal complex intermediate 3 regarded as 1.00
Method: Fluorescence intensity of each obtained compound was measured in order to evaluate fluorescence property.
A method of the evaluation is as follows. 25 mg of each compound was dissolved in 100 ml of ethanol respectively. The fluorescence intensity, photoluminescence intensity, was measured by a fluorescence spectrophotometer RF-5300PC that is available from Shimadzu Corporation. The measured results of the luminous organic compounds 1 to 9 and 11, the comparative compounds 1 to 3 and the metal complex intermediate 1 to 3 are indicated in Table 3. […] The relative value (2) of the fluorescence intensity indicates the value related to the fluorescence intensity of the metal complex intermediate 3 regarded as 1.00.

[2] = stood at room temperature overnight
Method: A method of measurement of the solubility is as follows. After the prescribed amount of the compound was added to each solvent, it was heated by water bath and irradiated supersonic wave for 1 hour. It was stood at room temperature overnight, and filtrated. Obtained residue was dried. Amount of insoluble residue was weighed, and solubility (w/v %) was determined.

C[N+](C)(C)c1ccc(C(c2ccc([N+](C)(C)C)cc2)c2ccc([N+](C)(C)C)cc2)cc1.O=C(C=C([O-])C(F)(F)F)c1ccc2ccccc2c1.O=C(C=C([O-])C(F)(F)F)c1ccc2ccccc2c1.O=C(C=C([O-])C(F)(F)F)c1ccc2ccccc2c1.O=C(C=C([O-])C(F)(F)F)c1ccc2ccccc2c1.O=C(C=C([O-])C(F)(F)F)c1ccc2ccccc2c1.O=C(C=C([O-])C(F)(F)F)c1ccc2ccccc2c1.O=C(C=C([O-])C(F)(F)F)c1ccc2ccccc2c1.O=C(C=C([O-])C(F)(F)F)c1ccc2ccccc2c1.O=C(C=C([O-])C(F)(F)F)c1ccc2ccccc2c1.O=C(C=C([O-])C(F)(F)F)c1ccc2ccccc2c1.O=C(C=C([O-])C(F)(F)F)c1ccc2ccccc2c1.O=C(C=C([O-])C(F)(F)F)c1ccc2ccccc2c1.[Eu+3].[Eu+3].[Eu+3] [Luminous Organic Compound 7]
Fluorescence Intensity [1]: 835 | center of Luminous Wave [1]: (613 nm) | Relative Value of Fluorescence Intensity, Relative Value (1) (Related to Comparative Compound 3) ([1]; comparative compound 3 regarded as 1.00): 1.66 | Relative Value of Fluorescence Intensity, Relative Value (2) (Related to Metal Complex Intermediate 3) [1]: 1.69 | Solubility, Ethanol [2]: 0.16 w/v % | Solubility, Ethyl Acetate [2]: 10.0 w/v % | Solubility, Methyl Ethyl Ketone [2]: over 10.0 w/v % | Solubility, Toluene [2]: 0.14 w/v % | Solubility, Xylene [2]: 0.16 w/v %

C[N+](C)(C)CC[N+](C)(C)C.O=C(C=C([O-])C(F)(F)F)c1ccc2ccccc2c1.O=C(C=C([O-])C(F)(F)F)c1ccc2ccccc2c1.O=C(C=C([O-])C(F)(F)F)c1ccc2ccccc2c1.O=C(C=C([O-])C(F)(F)F)c1ccc2ccccc2c1.O=C(C=C([O-])C(F)(F)F)c1ccc2ccccc2c1.O=C(C=C([O-])C(F)(F)F)c1ccc2ccccc2c1.O=C(C=C([O-])C(F)(F)F)c1ccc2ccccc2c1.O=C(C=C([O-])C(F)(F)F)c1ccc2ccccc2c1.[Eu+3].[Eu+3] [Luminous Organic Compound 1]
Relative Value of Fluorescence Intensity, Relative Value (1) (Related to Comparative Compound 3) [1]: 1.31 | Fluorescence Intensity [1]: 662 | center of Luminous Wave [1]: (613 nm) | Relative Value of Fluorescence Intensity, Relative Value (2) (Related to Metal Complex Intermediate 3) [1]: 1.34 | Solubility, Ethanol [2]: 0.20 w/v % | Solubility, Ethyl Acetate [2]: over 10.0 w/v % | Solubility, Methyl Ethyl Ketone [2]: over 10.0 w/v % | Solubility, Toluene [2]: 0.52 w/v % | Solubility, Xylene [2]: 0.10 w/v %

C[N+](C)(C)CCCC[N+](C)(C)C.O=C(C=C([O-])C(F)(F)F)c1ccc2ccccc2c1.O=C(C=C([O-])C(F)(F)F)c1ccc2ccccc2c1.O=C(C=C([O-])C(F)(F)F)c1ccc2ccccc2c1.O=C(C=C([O-])C(F)(F)F)c1ccc2ccccc2c1.O=C(C=C([O-])C(F)(F)F)c1ccc2ccccc2c1.O=C(C=C([O-])C(F)(F)F)c1ccc2ccccc2c1.O=C(C=C([O-])C(F)(F)F)c1ccc2ccccc2c1.O=C(C=C([O-])C(F)(F)F)c1ccc2ccccc2c1.[Al+3].[Al+3] [Luminous Organic Compound 11]
Relative Value of Fluorescence Intensity, Relative Value (1) (Related to Comparative Compound 3) [1]: 0.52 | Fluorescence Intensity [1]: 262 | center of Luminous Wave [1]: (455 nm) | Relative Value of Fluorescence Intensity, Relative Value (2) (Related to Metal Complex Intermediate 3) [1]: 0.53 | Solubility, Ethanol [2]: 0.21 w/v % | Solubility, Ethyl Acetate [2]: 1.60 w/v % | Solubility, Methyl Ethyl Ketone [2]: over 10.0 w/v % | Solubility, Toluene [2]: 0.25 w/v % | Solubility, Xylene [2]: 0.10 w/v %

Source: patent US20050008896A1, “Luminous organic compound and manufacturing method” (Orient Chemical Ind., Ltd., priority 2003, published 2005)
